Columns and labels:
[1] = tested on: Agaricus bisporus mycelia; assay: Dry matter of mycelia grown in potato dextrose yeast broth at 25° C.; format: cell-based, Agaricus bisporus (hybrid off-white); conditions: Week 5, control 15.6 b
Protocol: The commercial mushroom spawn (hybrid off-white), Agaricus bisporus (Lange) Imbach, was obtained from Alpha Spawn Co., Avondale, Pa., and inoculated onto potato dextrose yeast (PDY) agar (Difco) and incubated at 25° C. A pure culture was obtained from the grain spawn grown on petri dishes and re-inoculated into PDY agar and maintained at 25° C. before use.
The mushroom culture was grown on PDY agar or in PDY broth, both containing 0.5% yeast extract. The broth was dispensed into flasks prior to autoclaving, 50 mL. per flask, while 5 mL of sterile ODA solutions were aseptically added into flasks before inoculation.
To prepare ODA solutions, about 18.4 mg (0.1 mmole) of 10-oxo-trans-8-decenoic acid prepared as described above were dissolved in i mL ethanol and diluted with deionized water to 100 mL to give a molar concentration of 10^-3 M, and then diluted in order to add 1.0 mL of the solutions to each flask to give the required final concentrations.
Sterile ODA solutions were aseptically added into the autoclaved agar medium to achieve the desired final ODA concentrations, and then the medium was dispensed into petri dishes, ca 30 ml per dish. The levels of ODA tested included 2×10^-4, 10^-4, 10^-5, 10^-6 and 10^-7 M for both PDY agar and broth. These flasks and dishes were inoculated with 1 mm mycelial plugs from 4-week old cultures and incubated statically at 25° C. for 5 weeks. Each week, ca 300 μL of broth was aseptically taken from the flasks for laccase assay, while the colony diameter of every petri dish was measured using a vernier caliper to calculate the linear growth of the culture.
After 5-weeks of incubation, the dry matter of mycelia was determined by vacuum filtering liquid cultures in PDY broth through weighed filter paper, and drying to constant weight at 70° C.
Methods for the estimation of total fungal growth include the measurement of dry matter, linear growth, carbon dioxide evolution, chitin, ATP as well as extracellular laccase activity (Cochrane, (1958); Wood, (1979)). In this research the linear growth rate was used to examine the growth of mushroom mycelia on agar plates, while the extracellular laccase activity and dry matter were determined to estimate the growth of mycelia in liquid cultures. Extracellular laccases (p-diphenol: oxygen oxidoreductase, EC 1.10.3.2) produced by various classes of fungi are reported to be involved in biotransformation of lignin and lignosulfonate (Anders et al., (1976)), as well as in the breakdown of cellulose by cellulase (Westermark et al., (1974a); Westermark et al., (1974b); Haars et al., (1980)). Although the role of laccase in growth and development of Agaricus bisporus is not well defined, it has been observed that laccase production correlated with mycelial biomass of this fungus (Wood, (1979); Matcham et al., (1985); Claydon et al., (1988)).

[2] = tested on: separated stipes of Agaricus bisporus; assay: Elongation of upper stipes of separated stipes (upper and lower portions) on test agar containing ODA, 3-day storage at 12° C.; set-up: species or system Agaricus bisporus (hybrid off-white); conditions: for % Elongation of upper stipes, Mean: control 14.4
Protocol: Four type strains of mushrooms were used: the white, off-white, hybrid white (U3) and hybrid off-white (U1). Mushrooms from each flush were harvested before the veil was broken. Freshly harvested mushrooms were transported within about one hour after harvest to Borland Laboratory and placed in the pilot plant cold room (4° C.) for about two hours before sampling. Mushrooms were sorted on the basis of size and appearance. Diseased, damaged, misshapen, veil-opened and extremely large or small mushrooms (>40 or <25 mm in cap diameter) were discarded. Mushrooms of uniform size (25-40 mm) and maturity of the button stage (stage 1, veil intact tightly) were used in this research.
Whole stipes were cut at the lower portions to a length of 7-9 mm to standardize the sample, and marked at the middle of the veil, which is the location where the veil attaches to the stipe, to indicate the upper and lower stipes. The separated stipes contained 2-4 mm of upper stipes and 5-6 nun of lower stipes. For the study using separated upper stipes, mushrooms were dissected directly into upper stipes with a length of 3-5 mm. The separated stipes or upper stipes were put upside down on the test agar containing various mushroom supernatants or ODA concentrations; i.e., the upper sides in contact with the agar surface (FIG. 12). All petri dishes were covered and stored at 12° C. The length of separated stipes and upper stipes was measured using a vernier caliper before and after certain days of storage.
Sterile ODA solutions were aseptically added into the autoclaved agar solutions to achieve the desired final ODA concentrations. The agar solution was then dispensed into dishes, ca 20.8 mL per dish. The level of ODA tested included 10^-4, 10^-5, 10^-6, 10^-7, and 10^-8 M. Mushrooms (hybrid off-white) from 6 different crops were used to study their postharvest growth. In the first 2 experiments, mushroom stipes were measured after 4-day storage at 12° C. In order to prevent stipe deterioration and desiccation of the test agar, in the following experiments mushroom stipes were measured after 3-day storage at 12° C.
The experimental data were subjected to a single classification analysis of variance (AOV) for a completely randomized design (Steele et al., 1980). Fisher's protected least significant difference (LSD) was applied to separate the means. The level of significance used in this research was 0.05.
ODA stimulated the elongation of upper stipes in excess of the control, but the response occurred only when the lower portions were present. The additional elongation of upper stipes was stimulated by ODA at a concentration as low as 10^-8 M (0.00184 ppm).

[3] = Dissociation constant by titration with ethanolic NaOH; format: physicochemical; conditions: water; aqueous solution; Henderson-Hasselbalch; standard deviation 10^0.04; read-out: dissociation constant (Ka)
Protocol: The purity of ODA was then determined by titration with ethanolic NaOH. The molarity of NaOH was standardized by anhydrous oxalic acid which was dried overnight at 100° C. Three points in the titration curve, with the ratios of [A-] to [HA] equal to 1/3, 1/1 and 3/1, respectively, were chosen for the calculation of the dissociation constant (Ka) of ODA based on the Henderson-Hasselbalch equation (Mathews et al., (1990)): […]

- pKa [3]: 4.68
SMILES: O=C/C=C/CCCCCCC(=O)O [ODA, 10-oxo-trans-8-decenoic acid]
- Dry matter ([1]; ODA 2 × 10^-4 M (36.8 ppm)): 16.7 mg
- Dry matter ([1]; ODA 10^-4 M (18.4 ppm)): 23.2 mg
- Dry matter ([1]; ODA 10^-5 M (1.84 ppm)): 48.5 mg
- Dry matter ([1]; ODA 10^-6 M (0.184 ppm)): 44.1 mg
- Dry matter ([1]; ODA 10^-7 M (0.0184 ppm)): 16.9 mg
- minimal effective concentration ([2]; Agaricus bisporus, 72 h, 0.00184 ppm, separated stipes with lower portions, read-out: lowest concentration stimulating additional elongation of upper stipes): 0.01 µM
- % Elongation of upper stipes, Mean ([2]; ODA 10^-4 M (18.4 ppm)): 30.0%
- % Elongation of upper stipes ([2]; ODA 10^-4 M (18.4 ppm), rep 1, control 14.5): 25.1%
- % Elongation of upper stipes ([2]; ODA 10^-4 M (18.4 ppm), rep 2, control 11.6): 30.5%
- % Elongation of upper stipes ([2]; ODA 10^-4 M (18.4 ppm), rep 3, control 17.1): 34.2%
- % Elongation of upper stipes, Mean ([2]; ODA 10^-5 M (1.84 ppm)): 27.7%
- % Elongation of upper stipes ([2]; ODA 10^-5 M (1.84 ppm), rep 1, control 14.5): 30.7%
- % Elongation of upper stipes ([2]; ODA 10^-5 M (1.84 ppm), rep 2, control 11.6): 25.0%
- % Elongation of upper stipes ([2]; ODA 10^-5 M (1.84 ppm), rep 3, control 17.1): 27.4%
- % Elongation of upper stipes, Mean ([2]; ODA 10^-6 M (0.184 ppm)): 29.5%
- % Elongation of upper stipes ([2]; ODA 10^-6 M (0.184 ppm), rep 1, control 14.5): 27.5%
- % Elongation of upper stipes ([2]; ODA 10^-6 M (0.184 ppm), rep 2, control 11.6): 24.7%
- % Elongation of upper stipes ([2]; ODA 10^-6 M (0.184 ppm), rep 3, control 17.1): 36.2%
- % Elongation of upper stipes, Mean ([2]; ODA 10^-7 M (0.0184 ppm)): 30.9%
- % Elongation of upper stipes ([2]; ODA 10^-7 M (0.0184 ppm), rep 1, control 14.5): 27.3%
- % Elongation of upper stipes ([2]; ODA 10^-7 M (0.0184 ppm), rep 2, control 11.6): 38.3%
- % Elongation of upper stipes ([2]; ODA 10^-7 M (0.0184 ppm), rep 3, control 17.1): 27.2%
- % Elongation of upper stipes, Mean ([2]; ODA 10^-8 M (0.00184 ppm)): 30.5%
- % Elongation of upper stipes ([2]; ODA 10^-8 M (0.00184 ppm), rep 1, control 14.5): 23.7%
- % Elongation of upper stipes ([2]; ODA 10^-8 M (0.00184 ppm), rep 2, control 11.6): 32.7%
- % Elongation of upper stipes ([2]; ODA 10^-8 M (0.00184 ppm), rep 3, control 17.1): 35.1%
- effect on upper stipe elongation (in words) ([2]; all levels, only when lower portions present): significant effect
